Consider 1 compound from US20220177418A1, “INHIBITORS OF THE N-TERMINAL DOMAIN OF THE ANDROGEN RECEPTOR” (The Regents of the University of California, priority 2019, published 2022).

Common to all, as to type: cell-based
Experiment [1] has as its target glucocorticoid receptor (GR) (Homo sapiens, UniProt P04150). Kind of experiment: GRE-luciferase reporter assay. The following applies: GR-dependent, inhibition grade. As to the method:
(§1) The biochemical assays include reporter assays to determine the activity and specificity of these JN compounds to inhibit the transcriptional activity of the androgen receptor (AR). The reporter assays were conducted in various cell lines that either endogenously or exogenously express the full-length AR and ARV7, a constitutively active splice variant that is resistant to all clinically available AR targeting compounds. The reporter assays were performed in replicates and across a wide range of concentrations (generally […]).
(§2) The reporter systems utilized include: • MMTV-luciferase: AR-dependent • ARE-luciferase: AR-dependent • GRE-luciferase: glucocorticoid receptor (GR)-dependent • CRE-luciferase: CREB-dependent • AP1-luciferase: AP1 (jun and fos family)-dependent: • AR-TAD-luciferase: dependent on AR transactivation domain • CREB-TAD-luciferase: dependent on CREB transactivation domain • JUN-TAD-luciferase: dependent on c-Jun transactivation domain

Experiment [2] deals with c-Jun transactivation domain. Kind of experiment: JUN-TAD-luciferase reporter assay. The following applies: inhibition grade. The protocol: as §1, §2
In general terms: A reporter such as luciferase makes a cellular process visible.

Experiment [3] has as its system CREB transactivation domain. Kind of experiment: CREB-TAD-luciferase reporter assay. The following applies: inhibition grade. As to the method:
as §1, §2

A further experiment concerns AP1 (jun and fos family). Kind of experiment: AP1-luciferase reporter assay. Particulars: inhibition grade. The protocol:
as §1, §2

The test system of experiment [4] is AR-expressing (AR-positive) prostate cancer cell lines. Kind of experiment: MTT cell viability assay, AR-positive cells. The following applies: growth inhibition grade, 6 days. As to the method: (§3) FIGS. 3A-Q. Growth inhibitory effects of selected compounds. The indicated cells were exposed to the indicated compounds for 6 days; cell viability was measured by MTT assay, and specific reporters were assayed using literature conditions. Results were normalized to that of vehicle control. Experiments were performed in quadruplicate; results are means±s.d.
(§4) JN053 and JN138-JN156 were synthesized and tested in biochemical and cell biologic assays that have been described elsewhere. The JN compounds were first studied in cell viability assays (MTT assay) to determine the efficacy and specificity of the JN compounds for inhibition of prostate cancer cell lines.
(§5) The growth inhibitory effect of the JN compounds was assessed through the MTT assay, which assesses the total number of viable cells in vitro. These experiments were performed in AR-expressing (AR-positive) prostate cancer cell lines to assess on target effects and AR-null (AR-negative) prostate cancer cell lines to assess off target effects (i.e. specificity).
AR-expressing (AR-pos): • LNCaP: full length AR • LNCaP AR: overexpression of full length AR • 22Rv1: full length AR and ARV7 • VCaP: full length AR and ARV7 • CWR22: full length AR and ARV7
For orientation: Formazan colour is commonly taken as a measure of viable cells.

For experiment [5], the system named is AR-null (AR-negative) prostate cancer cell lines. Kind of experiment: MTT cell viability assay, AR-negative cells. Particulars: growth inhibition grade, 6 days. As to the method:
as §3, §4, §5

Chain of glucocorticoid receptor (GR) (P04150 whole entry, species assumed, canonical isoform): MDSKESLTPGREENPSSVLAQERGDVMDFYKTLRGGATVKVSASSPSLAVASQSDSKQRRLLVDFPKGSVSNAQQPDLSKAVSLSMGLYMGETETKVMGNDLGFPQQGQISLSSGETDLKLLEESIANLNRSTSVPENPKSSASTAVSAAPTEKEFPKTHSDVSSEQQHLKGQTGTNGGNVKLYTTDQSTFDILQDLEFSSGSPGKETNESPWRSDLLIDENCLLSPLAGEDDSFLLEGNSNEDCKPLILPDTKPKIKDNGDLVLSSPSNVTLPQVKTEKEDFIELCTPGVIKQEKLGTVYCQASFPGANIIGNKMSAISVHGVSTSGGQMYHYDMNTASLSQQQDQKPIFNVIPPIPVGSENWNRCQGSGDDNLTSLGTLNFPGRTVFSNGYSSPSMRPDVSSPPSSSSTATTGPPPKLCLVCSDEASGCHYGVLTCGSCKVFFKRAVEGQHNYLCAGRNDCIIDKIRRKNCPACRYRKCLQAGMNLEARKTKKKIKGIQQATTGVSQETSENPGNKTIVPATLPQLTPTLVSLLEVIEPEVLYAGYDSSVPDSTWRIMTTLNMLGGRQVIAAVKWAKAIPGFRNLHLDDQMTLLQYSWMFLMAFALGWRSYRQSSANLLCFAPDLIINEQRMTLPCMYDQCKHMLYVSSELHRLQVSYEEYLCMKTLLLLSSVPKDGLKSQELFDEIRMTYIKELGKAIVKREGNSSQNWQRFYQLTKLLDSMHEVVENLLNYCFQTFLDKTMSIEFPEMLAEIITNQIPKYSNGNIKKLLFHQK

Regarding `CNC(=O)c1ccc(N2C(=S)N(c3ccc(C#N)c(C(F)(F)F)c3)C(=O)C2(C)C)cc1F` [MDV3100, reference compound], the GRE result in experiment [1] was “LOW”. Moreover, in experiment [2], the JUN-TAD result is given as “LOW”. For the same compound, the CREB-TAD result in experiment [3] is recorded as “LOW”. In the experiment on AP1 (jun and fos family), the AP1 result is recorded as “HIGH”. For the same compound, in experiment [4], the “MTT AR-Pos” value was “HIGH”. For the same compound, the “MTT AR Neg” value in experiment [5] is “LOW”.
